Where two headings read alike, the source gives them in different places.
What was measured:
mouse ENPP1 = mouse ENPP1 (Mus musculus (Mouse), UniProt P06802); test: ENPP1 enzyme activity assay using cGAMP as substrate (luciferase detection of AMP); format: biochemical
CD14+ PBMCs = test: Stimulation of CD14+ PBMCs with extracellular cGAMP (IFNB1 RT-qPCR); format: cell-based, human; conditions: submicromolar soluble cGAMP
4T1-Luc tumors = test: 4T1-Luc tumor mouse model (tumor volume, survival)
[1] = ENPP1 enzyme activity, second activity table (titled TABLE 2, Compounds; column without head), read-out: IC50

mouse ENPP1, sequence (P06802 85-906): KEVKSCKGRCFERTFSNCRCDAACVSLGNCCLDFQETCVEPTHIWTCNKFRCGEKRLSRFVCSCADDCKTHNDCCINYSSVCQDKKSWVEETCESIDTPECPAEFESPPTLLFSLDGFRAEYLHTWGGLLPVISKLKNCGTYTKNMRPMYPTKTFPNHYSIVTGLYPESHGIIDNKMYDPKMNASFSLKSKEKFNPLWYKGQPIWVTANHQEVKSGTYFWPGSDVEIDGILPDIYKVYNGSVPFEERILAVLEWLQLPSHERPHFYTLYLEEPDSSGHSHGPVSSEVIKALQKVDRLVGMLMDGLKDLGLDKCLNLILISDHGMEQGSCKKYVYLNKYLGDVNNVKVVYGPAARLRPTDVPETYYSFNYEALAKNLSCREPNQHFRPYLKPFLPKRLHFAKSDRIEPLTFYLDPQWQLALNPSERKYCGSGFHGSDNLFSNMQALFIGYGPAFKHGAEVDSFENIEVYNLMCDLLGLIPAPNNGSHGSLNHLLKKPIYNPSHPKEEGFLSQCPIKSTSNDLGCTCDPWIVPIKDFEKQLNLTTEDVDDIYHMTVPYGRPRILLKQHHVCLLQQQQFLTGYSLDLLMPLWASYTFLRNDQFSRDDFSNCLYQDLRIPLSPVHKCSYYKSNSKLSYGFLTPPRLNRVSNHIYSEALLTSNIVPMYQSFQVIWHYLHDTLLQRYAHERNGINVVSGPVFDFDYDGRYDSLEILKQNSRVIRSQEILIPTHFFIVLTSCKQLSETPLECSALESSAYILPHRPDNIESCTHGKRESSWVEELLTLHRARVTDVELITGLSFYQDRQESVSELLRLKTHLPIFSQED

SMILES	IC50 (mouse ENPP1; [1])	IC50 (mouse ENPP1)	further results
COc1cc2ncnc(NCc3ccc(OP(O)(O)=S)cc3)c2cc1OC [Compound 7]		0.05 to 0.1 µM	
COc1cc2ncnc(Nc3ccc(CP(=O)(O)O)cc3)c2cc1OC [Compound 3]			IC50 (mouse ENPP1; ENPP1 enzyme activity, Table 4, read-out: IC50): 0.05 to 0.1 µM
COc1cc2ncc(C#N)c(N3CCC(CCOP(O)(O)=S)CC3)c2cc1OC [Compounds 202]		0.05 to 0.1 µM	
Nc1nc2c(ncn2[C@@H]2O[C@@H]3COP(=O)(O)O[C@H]4[C@@H](O)[C@H](n5cnc6c(N)ncnc65)O[C@@H]4COP(=O)(O)O[C@@H]2[C@@H]3O)c(=O)[nH]1 [cGAMP, cyclic guanosine monophosphate-adenosine monophosphate]			IFNB1 response (CD14+ PBMCs): upregulating IFNB1; effect over IR treatment (4T1-Luc tumors; 20 Gy IR + intratumoral 10 μg cGAMP alone): had no effect over IR treatment; mice cured (4T1-Luc tumors; ENPP1−/− 4T1-Luc tumors, 20 Gy IR + intratumoral cGAMP, no anti-CTLA-4): 30%

Second part, led by results:

IC50 (mouse ENPP1; [1])	SMILES	IC50 (mouse ENPP1)	further results
> 0.1 µM	COc1cccc2c(N3CCC(CCP(=O)(O)O)CC3)c(C#N)c(/C=C\c3cccnc3)nc12 [Compounds 206]		
0.05 to 0.1 µM	COc1ccc2ncc(C#N)c(N3CCC(CCP(=O)(O)O)CC3)c2c1 [Compounds 44]		

Source: US20250059218A1, “ENPP1 Inhibitors and Methods of Modulating Immune Response” (The Board of Trustees of the Leland Stanford Junior …, priority 2019, published 2025)
